Patent publication US20220281821A1, “INDAZOLE COMPOUNDS AND THEIR PHARMACEUTICAL COMPOSITIONS” (Jinan University, priority 2019, published 2022)
pIC50: −log10 of the molar value.

Columns and labels:
[1] = target: T1, TRKA (Homo sapiens, UniProt P04629); experiment: Z′-LYTE kinase activity assay, TRKA; assay type: biochemical; conditions: ATP 400 uM
T1 construct: purchased life technologies PV3144
Text: (§1) Kinase activity assay: Z′-LYTE™ technology (detection by fluorescence, enzyme-conjugated format, based on the difference in sensitivity of phosphorylated and non-phosphorylated peptides to proteolytic cleavage) was applied, and using the principle of fluorescence resonance energy transfer (FRET), a Z′-LYTE™ FRET peptide substrate (Z′-LYTE™ Tyrosine 1 Peptide Substrate, Invitrogen, PV3190), and a secondary reaction were used to detect the inhibitory activity of the compounds on TRKs (TRK1, TRK2, TRK3) (life technologies, PV3144, PV3616, PV3617).
(§2) Enzymatic reaction: In a 384-well plate, 5 μL of an enzyme-substrate system (50 mM HEPES pH 7.5, 0.01% BRIJ-35, 10 mM MgCl2, 1 mM EGTA, 2 μM Tyr 01 Peptide Substrate) was added and 5 nL of compound (concentration gradient) was transferred thereto by using the echo520 ultramicro liquid pipetting system. […] After shaking and mixing, centrifuging was performed. A reaction was carried out at 30° C. in the dark for 1.5 hours.
(§3) The data were analyzed as follows:
(§4) Phosphorylation ratio=1−{(emission ratio×F100%−C100%)/[C0%−C100%+emission ratio×(F100%−F0%)]}×100;
(§5) Inhibition rate=100×(1−compound phosphorylation ratio/negative control phosphorylation ratio).
(§6) IC50 values were calculated by using GraphPad Prism 5.0 software.

[2] = target: T2, BaF3-ETV6-NTRK2 (Homo sapiens, UniProt Q16620); experiment: Cell proliferation inhibition (CCK-8), BaF3-ETV6-NTRK2 stable strain; assay type: cell-based, mouse; conditions: BaF3-ETV6-NTRK2, 72 hours
T2 construct: fused on or other part: P41212 (Transcription factor ETV6)
Summary of the method: (§7)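 Ba/F3 cells stably electroporated with ETV6-NTRK3, CD74-NTRK1 or ETV6-NTRK2, selected with G418 and grown without IL3, then cloned by limiting dilution.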

[3] = target: T3, BaF3-CD74-NTRK1 (Homo sapiens, UniProt P04629); experiment: Cell proliferation inhibition (CCK-8), BaF3-CD74-NTRK1 stable strain; assay type: cell-based, mouse; conditions: BaF3-CD74-NTRK1, 72 hours
T3 construct: fused on or other part: P04233 (HLA class II histocompatibility antigen gamma chain)
Summary of the method: as §7

[4] = target: T4, TRKC (Homo sapiens, UniProt Q16288); experiment: Z′-LYTE kinase activity assay, TRKC; assay type: biochemical; conditions: ATP 50 uM
T4 construct: purchased life technologies PV3617
Text: as §1, §2, §3, §6

[5] = target: T5, BaF3-ETV6-NTRK3 (Homo sapiens, UniProt Q16288); experiment: Cell proliferation inhibition (CCK-8), BaF3-ETV6-NTRK3 stable strain; assay type: cell-based, mouse; conditions: BaF3-ETV6-NTRK3, 72 hours
T5 construct: fused on or other part: P41212 (Transcription factor ETV6)
Summary of the method: as §7

[6] = target: T6, TRKB (Homo sapiens, UniProt Q16620); experiment: Z′-LYTE kinase activity assay, TRKB; assay type: biochemical; conditions: ATP 25 uM
T6 construct: purchased life technologies PV3616
Text: as §1, §2, §3, §4, §5, §6

T6 sequence (Q16620 32-822): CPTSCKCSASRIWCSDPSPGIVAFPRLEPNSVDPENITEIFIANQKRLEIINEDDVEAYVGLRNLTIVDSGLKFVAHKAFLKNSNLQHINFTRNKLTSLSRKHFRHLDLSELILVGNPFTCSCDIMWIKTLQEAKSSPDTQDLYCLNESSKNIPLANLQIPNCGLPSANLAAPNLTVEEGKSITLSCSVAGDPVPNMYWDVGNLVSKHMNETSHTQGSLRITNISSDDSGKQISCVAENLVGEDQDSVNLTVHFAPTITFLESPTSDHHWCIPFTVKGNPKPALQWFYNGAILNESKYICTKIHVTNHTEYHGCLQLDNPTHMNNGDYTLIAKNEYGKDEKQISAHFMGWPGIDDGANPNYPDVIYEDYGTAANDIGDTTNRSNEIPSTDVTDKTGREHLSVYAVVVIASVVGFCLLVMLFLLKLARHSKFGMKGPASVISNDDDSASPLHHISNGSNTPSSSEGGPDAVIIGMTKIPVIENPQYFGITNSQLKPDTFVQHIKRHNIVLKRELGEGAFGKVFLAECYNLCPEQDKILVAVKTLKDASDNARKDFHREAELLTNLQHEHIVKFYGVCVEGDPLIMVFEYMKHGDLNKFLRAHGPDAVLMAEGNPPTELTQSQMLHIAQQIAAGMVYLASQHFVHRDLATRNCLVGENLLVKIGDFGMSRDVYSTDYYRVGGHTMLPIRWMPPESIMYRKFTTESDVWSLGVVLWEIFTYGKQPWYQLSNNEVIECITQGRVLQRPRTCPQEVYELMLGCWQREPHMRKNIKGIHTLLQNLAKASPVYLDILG
T2 sequence (Q16620 538-822 limits assumed): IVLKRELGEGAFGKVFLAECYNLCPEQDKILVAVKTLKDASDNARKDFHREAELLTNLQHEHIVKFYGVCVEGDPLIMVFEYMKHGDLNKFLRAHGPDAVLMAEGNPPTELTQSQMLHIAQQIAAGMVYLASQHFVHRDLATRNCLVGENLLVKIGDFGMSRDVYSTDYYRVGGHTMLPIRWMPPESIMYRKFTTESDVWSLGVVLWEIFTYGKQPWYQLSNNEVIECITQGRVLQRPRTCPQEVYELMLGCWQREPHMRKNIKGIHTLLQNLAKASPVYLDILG
T4 sequence (Q16288 32-839): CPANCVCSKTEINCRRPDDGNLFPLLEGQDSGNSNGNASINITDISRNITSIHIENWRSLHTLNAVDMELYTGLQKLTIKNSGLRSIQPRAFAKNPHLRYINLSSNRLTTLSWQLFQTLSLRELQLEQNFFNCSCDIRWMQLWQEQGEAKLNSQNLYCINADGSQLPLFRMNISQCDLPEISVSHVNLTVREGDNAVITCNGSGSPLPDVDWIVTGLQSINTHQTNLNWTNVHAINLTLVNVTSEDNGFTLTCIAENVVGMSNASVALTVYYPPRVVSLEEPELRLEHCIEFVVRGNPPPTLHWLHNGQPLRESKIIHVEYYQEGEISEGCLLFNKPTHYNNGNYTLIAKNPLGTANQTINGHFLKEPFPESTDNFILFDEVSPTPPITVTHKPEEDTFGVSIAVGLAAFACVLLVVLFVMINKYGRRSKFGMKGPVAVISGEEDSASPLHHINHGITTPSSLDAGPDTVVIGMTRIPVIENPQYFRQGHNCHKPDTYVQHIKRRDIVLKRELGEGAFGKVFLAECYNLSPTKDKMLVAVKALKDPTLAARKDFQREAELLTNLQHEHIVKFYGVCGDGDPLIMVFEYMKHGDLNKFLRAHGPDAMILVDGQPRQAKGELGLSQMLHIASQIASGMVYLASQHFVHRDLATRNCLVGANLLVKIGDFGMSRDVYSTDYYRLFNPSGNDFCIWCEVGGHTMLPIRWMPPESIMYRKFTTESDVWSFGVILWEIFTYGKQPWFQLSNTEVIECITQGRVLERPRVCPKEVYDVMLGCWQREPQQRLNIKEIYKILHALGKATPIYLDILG
T3 sequence (P04629 510-796 limits assumed): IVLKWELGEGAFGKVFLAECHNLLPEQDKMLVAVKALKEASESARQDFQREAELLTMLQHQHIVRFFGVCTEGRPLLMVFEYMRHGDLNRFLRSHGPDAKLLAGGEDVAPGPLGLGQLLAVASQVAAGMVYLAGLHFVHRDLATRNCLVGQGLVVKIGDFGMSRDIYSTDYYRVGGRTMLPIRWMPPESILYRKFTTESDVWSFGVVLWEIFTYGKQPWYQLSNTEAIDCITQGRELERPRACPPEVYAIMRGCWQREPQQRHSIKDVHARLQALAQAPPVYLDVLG
T1 sequence (P04629 440-796 limits assumed): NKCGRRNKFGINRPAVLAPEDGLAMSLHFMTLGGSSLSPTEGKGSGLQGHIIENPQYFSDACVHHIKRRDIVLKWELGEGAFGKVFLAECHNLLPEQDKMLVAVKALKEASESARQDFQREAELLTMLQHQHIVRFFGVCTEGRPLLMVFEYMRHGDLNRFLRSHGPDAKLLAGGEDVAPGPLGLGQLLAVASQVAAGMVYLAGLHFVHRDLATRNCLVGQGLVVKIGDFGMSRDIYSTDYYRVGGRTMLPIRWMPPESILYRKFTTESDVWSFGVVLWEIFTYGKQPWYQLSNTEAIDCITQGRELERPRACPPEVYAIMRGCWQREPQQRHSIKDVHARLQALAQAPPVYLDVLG
T5 sequence (Q16288 whole entry, the tested form may be a part): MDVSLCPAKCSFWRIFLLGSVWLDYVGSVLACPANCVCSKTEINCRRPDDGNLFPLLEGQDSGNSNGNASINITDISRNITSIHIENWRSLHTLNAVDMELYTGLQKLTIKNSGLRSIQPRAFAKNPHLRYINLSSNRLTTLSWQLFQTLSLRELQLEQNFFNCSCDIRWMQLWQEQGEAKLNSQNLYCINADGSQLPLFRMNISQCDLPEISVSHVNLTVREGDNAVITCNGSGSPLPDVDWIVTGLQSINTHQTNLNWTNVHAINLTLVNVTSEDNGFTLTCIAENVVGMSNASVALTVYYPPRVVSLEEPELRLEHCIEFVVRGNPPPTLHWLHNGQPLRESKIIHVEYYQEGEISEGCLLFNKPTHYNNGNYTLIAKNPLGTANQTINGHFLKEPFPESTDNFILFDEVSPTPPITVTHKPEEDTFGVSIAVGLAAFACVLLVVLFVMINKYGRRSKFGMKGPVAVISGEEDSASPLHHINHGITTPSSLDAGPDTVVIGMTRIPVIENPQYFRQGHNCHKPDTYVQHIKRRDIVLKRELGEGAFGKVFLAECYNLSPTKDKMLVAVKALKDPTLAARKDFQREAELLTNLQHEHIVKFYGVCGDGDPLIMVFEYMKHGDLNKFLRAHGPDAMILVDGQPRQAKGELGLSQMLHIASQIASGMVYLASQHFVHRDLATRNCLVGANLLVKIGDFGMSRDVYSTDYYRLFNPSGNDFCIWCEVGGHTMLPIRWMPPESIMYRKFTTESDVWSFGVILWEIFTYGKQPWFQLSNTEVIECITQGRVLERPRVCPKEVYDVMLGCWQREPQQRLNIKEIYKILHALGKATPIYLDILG

SMILES | pIC50 [1] | pIC50 [2] | pIC50 [3] | pIC50 [4] | pIC50 [5] | pIC50 [6]
Fc1cccc(F)c1Cc1ccc2[nH]nc(/C=C/c3ccccn3)c2c1 [DYX-081, (E)-5-(2,6-difluorobenzyl)-3-(2-(pyridin-2-yl)vinyl)-1H-indazole] | 7.40 | 5.99 | 5.84 | 7.58 | 6.09 | 6.77
C(#Cc1n[nH]c2ccc(Cc3ccccc3)cc12)c1ccccn1 [DYX-014, 5-benzyl-3-(pyridin-2-ylethynyl)-1H-indazole] | 7.00 | 5.33 | 5.08 | 7.02 | 5.52 | 6.49
Fc1ccc(F)c(CNc2ccc3[nH]nc(/C=C/c4ccccn4)c3c2)c1 [DYX-216A, (E)-N-(2,5-difluorobenzyl)-3-(2-(pyridin-2-yl)vinyl)-1H-indazol-5-amine] | 8.96 | 8.06 | 7.90 | 8.89 | 8.14 | 8.19
Fc1cccc(Cc2ccc3[nH]nc(/C=C/c4ccccn4)c3c2)c1F [DYX-082, (E)-5-(2,3-difluorobenzyl)-3-(2-(pyridin-2-yl)vinyl)-1H-indazole] | 7.82 | 6.61 | 6.23 | 8.07 | 6.80 | 7.17
Fc1cccc(CNc2ccc3[nH]nc(/C=C/c4ccccn4)c3c2)c1 [DYX-305, (E)-N-(3-fluorobenzyl)-3-(2-(pyridin-2-yl)vinyl)-1H-indazol-5-amine] | 8.74 | 7.29 | 7.55 | 8.89 | 7.64 | 8.02
CN(c1cc(F)cc(F)c1)c1ccc2[nH]nc(C#Cc3ccccn3)c2c1 [DYX-130, N-(3,5-difluorophenyl)-N-methyl-3-(pyridin-2-ylethynyl)-1H-indazol-5-amine] | 6.50 | 5.01 | 5.42 | 6.63 | 5.51 | 6.00
CN(c1cc(F)cc(F)c1)c1ccc2[nH]nc(/C=C/c3ccccn3)c2c1 [DYX-139, (E)-N-(3,5-difluorophenyl)-N-methyl-3-(2-(pyridin-2-yl)vinyl)-1H-indazol-5-amine] | 7.82 | 5.75 | 5.63 | 7.74 | 5.90 | 7.59
Fc1ccc(Cc2ccc3[nH]nc(C#Cc4ccccn4)c3c2)c(F)c1 [DYX-051, 5-(2,4-difluorobenzyl)-3-(pyridin-2-ylethynyl)-1H-indazole] | < 6.00 | < 5.00 | < 5.00 | < 6.00 | < 5.00 | < 6.00
C(=C\c1n[nH]c2ccc(Cc3ccccc3)cc12)/c1ccccn1 [DYX-048, (E)-5-benzyl-3-(2-(pyridin-2-yl)vinyl)-1H-indazole] | 7.48 | 6.78 | 6.10 | 8.01 | 6.02 | 7.82
Fc1cc(F)cc(Nc2ccc3[nH]nc(C#Cc4ccccn4)c3c2)c1 [DYX-129, N-(3,5-difluorophenyl)-3-(pyridin-2-ylethynyl)-1H-indazol-5-amine] | < 6.00 | 5.55 | 5.00 | 6.24 | 5.50 | < 6.00
C[C@@H](Nc1ccc2[nH]nc(/C=C/C(=O)N3CC[C@H](O)C3)c2c1)c1cc(F)cc(F)c1 [DYX-303, (E)-3-(5-(((R)-1-(3,5-difluorophenyl)ethyl)amino)-1H-indazol-3-yl)-1-((S)-3-hydroxylpyrrolidin-1-yl)prop-2-en-1-one] | 8.52 | 7.70 | 8.00 | 9.10 | 8.15 | 8.32
Fc1cccc(Cc2ccc3[nH]nc(/C=C/c4ccccn4)c3c2)c1 [DYX-038, (E)-5-(3-fluorobenzyl)-3-(2-(pyridin-2-yl)vinyl)-1H-indazole] | 8.03 | 6.47 | 6.62 | 8.72 | 6.87 | 7.49
O=S(=O)(c1cc(F)cc(F)c1)c1ccc2[nH]nc(/C=C/c3ccccn3)c2c1 [DYX-114, (E)-5-((3,5-difluorophenyl)sulfonyl)-3-(2-(pyridin-2-yl)vinyl)-1H-indazole] | 8.92 | 6.76 | 6.39 | 8.55 | 6.81 | 8.15
Fc1cc(F)cc(Cc2ccc3[nH]nc(/C=C/c4ccccc4F)c3c2)c1 [DYX-10, (E)-5-(3,5-difluorobenzyl)-3-(2-fluorostyryl)-1H-indazole] | 8.04 | 6.11 | 6.20 | 7.73 | 6.40 | 8.49
O=S(=O)(c1cc(F)cc(F)c1)c1cc2c(/C=C/c3ccccn3)n[nH]c2cn1 [DYX-149, (E)-5-((3,5-difluorophenyl)sulfonyl)-3-(2-(pyridin-2-yl)vinyl)-1H-pyrazolo[3,4-c]pyridine] | 6.50 | 5.61 | 5.51 | 6.81 | 5.51 | < 6.00
Fc1cccc(Cc2ccc3[nH]nc(C#Cc4ccccn4)c3c2)c1 [DYX-025, 5-(3-fluorobenzyl)-3-(pyridin-2-ylethynyl)-1H-indazole] | 7.59 | 5.59 | 5.63 | 7.92 | 6.04 | 7.09
Fc1ccccc1Cc1ccc2[nH]nc(C#Cc3ccccn3)c2c1 [DYX-021, 5-(2-fluorobenzyl)-3-(pyridin-2-ylethynyl)-1H-indazole] | 6.96 | 5.51 | 5.31 | 7.10 | 5.58 | 6.44
Fc1cc(F)cc(CNc2ccc3[nH]nc(/C=C/c4ccccn4)c3c2)c1 [DYX-185, (E)-N-(3,5-difluorobenzyl)-3-(2-(pyridin-2-yl)vinyl)-1H-indazol-5-amine] | 8.77 | 7.36 | 7.49 | 8.72 | 7.63 | 8.00
Cc1cccc(/C=C/c2n[nH]c3ccc(Cc4cc(F)cc(F)c4)cc23)n1 [DYX-09, (E)-5-(3,5-difluorobenzyl)-3-(2-(6-methylpyridin-2-yl)vinyl)-1H-indazole] | 7.97 | 7.01 | 7.16 | 8.38 | 6.78 | 7.83
Fc1cc(F)cc(Cc2ccc3[nH]nc(/C=C/c4ccc5ccccc5n4)c3c2)c1 [DYX-06, (E)-2-(2-(5-(3,5-difluorobenzyl)-1H-indazol-3-yl)vinyl)quinoline] | 7.85 | 6.14 | 6.19 | 7.11 | 6.31 | 7.06
Fc1ccc(Cc2ccc3[nH]nc(C#Cc4ccccn4)c3c2)cc1 [DYX-027, 5-(4-fluorobenzyl)-3-(pyridin-2-ylethynyl)-1H-indazole] | < 6.00 | < 5.00 | < 5.00 | < 6.00 | < 5.00 | < 6.00
O=C(Nc1cc(F)cc(F)c1)Nc1ccc2[nH]nc(/C=C/c3ccccn3)c2c1 [DYX-174, (E)-1-(3,5-difluorophenyl)-3-(3-(2-(pyridin-2-yl)vinyl)-1H-indazol-5-yl)urea] | 7.33 | 5.72 | 5.93 | 7.03 | 6.21 | 6.62
Fc1ccc(Cc2ccc3[nH]nc(/C=C/c4ccccn4)c3c2)cc1F [DYX-059, (E)-5-(3,4-difluorobenzyl)-3-(2-(pyridin-2-yl)vinyl)-1H-indazole] | 6.60 | 5.05 | 5.10 | 6.80 | 5.49 | < 6.00
Cc1cccc(Cc2ccc3[nH]nc(C#Cc4ccccn4)c3c2)c1 [DYX-137Q, 5-(3-methylbenzyl)-3-(pyridin-2-ylethynyl)-1H-indazole] | 6.67 | < 5.00 | < 5.00 | 7.04 | < 5.00 | 6.40
Fc1cc(F)cc(-c2ccc3[nH]nc(/C=C/c4ccccn4)c3c2)c1 [DYX-119, (E)-5-(3,5-difluorophenyl)-3-(2-(pyridin-2-yl)vinyl)-1H-indazole] | 6.19 | < 5.00 | < 5.00 | 6.65 | < 5.00 | < 6.00
